Assay results as given in PubChem BioAssay AID190 (DTP/NCI, 2004).
Where “and” joins values, the source holds several entries; their conditions need not be identical. Equal values may be shown once. Inconclusive results and toxic doses are left out. How the source made its calls: active means survival T/C of 150% or more; inactive means T/C below 125% in these data.

Tested on: AKR/Lw mice, AKR lymphoma ip, median survival T/C
Assay: NCI In Vivo Anticancer Drug Screen. Data for tumor model Lymphoma AKR (Transplanted) (intraperitoneal) in AKR/Lw mice
Conditions: endpoint: median survival time, higher = longer survival
Procedure: The antitumor activity of compounds was measured in mice bearing transplantable tumors. Survival or tumor size were measured and the results are expressed as the measurement made in the treated group (T) divided by the measurement made in the vehicle treated control group (C). The tumor model used in this assay is Lymphoma AKR (Transplanted) (intraperitoneal) in AKR/Lw mice

[1] = dose: 100.0 mg/kg/injection, schedule: Q01DX001 (ip), vehicle: other
[2] = dose: 100.0 mg/kg/injection, schedule: Q04DX003 (ip), vehicle: other
[3] = dose: 200.0 mg/kg/injection, schedule: Q01DX001 (ip), vehicle: other
[4] = dose: 200.0 mg/kg/injection, schedule: Q04DX003 (ip), vehicle: other
[5] = dose: 400.0 mg/kg/injection, schedule: Q01DX001 (ip), vehicle: other
[6] = dose: 100.0 mg/kg/injection, schedule: Q01DX001 (ip), vehicle: Klucel (hydroxypropylcellulose) (HPC)
[7] = dose: 200.0 mg/kg/injection, schedule: Q01DX001 (ip), vehicle: Klucel (hydroxypropylcellulose) (HPC)
[8] = dose: 400.0 mg/kg/injection, schedule: Q01DX001 (ip), vehicle: Klucel (hydroxypropylcellulose) (HPC)
[9] = dose: 100.0 mg/kg/injection, schedule: Q01DX001 (ip), vehicle: saline
[10] = dose: 200.0 mg/kg/injection, schedule: Q01DX001 (ip), vehicle: saline
[11] = dose: 400.0 mg/kg/injection, schedule: Q01DX001 (ip), vehicle: saline
[12] = dose: 25.0 mg/kg/injection, schedule: Q01DX001 (ip), vehicle: Klucel (hydroxypropylcellulose) (HPC)
[13] = dose: 50.0 mg/kg/injection, schedule: Q01DX001 (ip), vehicle: Klucel (hydroxypropylcellulose) (HPC)
[14] = dose: 2.5 mg/kg/injection, schedule: Q04DX003 (ip), vehicle: Klucel (hydroxypropylcellulose) (HPC)
[15] = dose: 5.0 mg/kg/injection, schedule: Q01DX009 (ip), vehicle: Klucel (hydroxypropylcellulose) (HPC)
[16] = dose: 5.0 mg/kg/injection, schedule: Q04DX003 (ip), vehicle: Klucel (hydroxypropylcellulose) (HPC)

Measured: T/C

c1cc2cc3c(cc2cc1CC1=NCCc2cc4c(cc21)OCO4)OCO3
inactive: [1] 105 % of control | [2] 100 % of control | [3] 100 % of control | [4] 100 % of control | [5] 102 % of control | dose: 400.0 mg/kg/injection, schedule: Q04DX003 (ip), vehicle: other 100 % of control

OCC1C(CO)C2(Cl)C(Cl)=C(Cl)C1(Cl)C2(Cl)Cl (stereo not drawn)
inactive: [6] 100 % of control | [7] 93 % of control | [8] 91 % of control

C[C@]12CCC(=O)C=C1CC[C@@H]1[C@@H]2[C@@H](O)C[C@@]2(C)[C@H]1CC[C@]2(O)C(=O)CO
inactive: dose: 5.0 mg/kg/injection, schedule: Q01DX005 (sc), vehicle: steriod suspending solution 117 % of control | dose: 10.0 mg/kg/injection, schedule: Q01DX005 (sc), vehicle: steriod suspending solution 106 % of control | dose: 20.0 mg/kg/injection, schedule: Q01DX005 (sc), vehicle: steriod suspending solution 106 % of control | dose: 25.0 mg/kg/injection, schedule: Q01DX005 (sc), vehicle: steriod suspending solution 94 % of control | dose: 50.0 mg/kg/injection, schedule: Q01DX005 (sc), vehicle: steriod suspending solution 107 % of control

Nc1ccccc1SC1CC(=O)N(c2ccc(I)cc2)C1=O (stereo not drawn)
inactive: [6] 93 % of control | dose: 100.0 mg/kg/injection, schedule: Q04DX003 (ip), vehicle: Klucel (hydroxypropylcellulose) (HPC) 90 % of control | dose: 200.0 mg/kg/injection, schedule: Q04DX003 (ip), vehicle: Klucel (hydroxypropylcellulose) (HPC) 86 % of control

CCCCCCCCCCCCCCCC(=O)N(CCCN)CCCCCCCCCN(CCCN)C(=O)CCCCCCCCCCCCCCC
inactive: dose: 12.5 mg/kg/injection, schedule: Q01DX009 (ip), vehicle: saline 100 % of control | dose: 25.0 mg/kg/injection, schedule: Q01DX009 (ip), vehicle: saline 92 % of control | dose: 50.0 mg/kg/injection, schedule: Q01DX009 (ip), vehicle: saline 107 % of control | dose: 50.0 mg/kg/injection, schedule: Q04DX003 (ip), vehicle: other 95 % of control | [9] 108 % of control | [2] 95 % of control

CC12CCCC(=O)C1CC/C(=C\c1ccco1)C2=O (stereo not drawn)
inactive: [9] 109 % of control | [10] 100 % of control | [11] 100 % of control

Cc1cnc2c(N)[nH]nc2n1
inactive: [12] 100 % of control | [13] 97 % of control | [6] 106 % of control

COc1cc2ccc(CC(=O)NCc3ccccc3)cc2cc1OC
inactive: [9] 117 % of control | [10] 107 % of control | [4] 95 % of control | [11] 103 % of control

COC(=O)C1(C)CSCCC1=O (stereo not drawn)
inactive: [6] 91 % of control | [7] 105 % of control | [8] 96 % of control

COc1ccc(NC(=S)Nc2ccccn2)cc1
inactive: [6] 100 % of control

O=C(O)CCCc1ccc(N(CCCl)CCCl)cc1
inactive: dose: 0.12 mg/kg/injection, schedule: Q01DX009 (ip), vehicle: Klucel (hydroxypropylcellulose) (HPC) 97 % of control | dose: 0.25 mg/kg/injection, schedule: Q01DX009 (ip), vehicle: Klucel (hydroxypropylcellulose) (HPC) 94 % of control and 96 % of control | dose: 0.5 mg/kg/injection, schedule: Q01DX009 (ip), vehicle: Klucel (hydroxypropylcellulose) (HPC) 100 % of control | dose: 1.0 mg/kg/injection, schedule: Q01DX009 (ip), vehicle: Klucel (hydroxypropylcellulose) (HPC) 96 % of control and 102 % of control | dose: 1.2 mg/kg/injection, schedule: Q01DX009 (ip), vehicle: Klucel (hydroxypropylcellulose) (HPC) 100 % of control | dose: 1.2 mg/kg/injection, schedule: Q04DX003 (ip), vehicle: Klucel (hydroxypropylcellulose) (HPC) 94 % of control | dose: 1.25 mg/kg/injection, schedule: Q04DX003 (ip), vehicle: saline 103 % of control | dose: 2.0 mg/kg/injection, schedule: Q01DX009 (ip), vehicle: Klucel (hydroxypropylcellulose) (HPC) 100 % of control | dose: 2.5 mg/kg/injection, schedule: Q01DX009 (ip), vehicle: Klucel (hydroxypropylcellulose) (HPC) 93 % of control and 107 % of control | [14] 100 % of control | dose: 2.5 mg/kg/injection, schedule: Q04DX003 (ip), vehicle: saline 86 % of control and 118 % of control | dose: 3.75 mg/kg/injection, schedule: Q01DX009 (ip), vehicle: saline 119 % of control | dose: 4.0 mg/kg/injection, schedule: Q01DX009 (ip), vehicle: Klucel (hydroxypropylcellulose) (HPC) 118 % of control | [15] 86 % of control and 110 % of control | [16] 100 % of control and 105 % of control and 117 % of control | dose: 5.0 mg/kg/injection, schedule: Q04DX003 (ip), vehicle: saline 93 % of control and 97 % of control | dose: 6.2 mg/kg/injection, schedule: Q01DX001 (ip), vehicle: Klucel (hydroxypropylcellulose) (HPC) 95 % of control and 120 % of control | dose: 6.25 mg/kg/injection, schedule: Q01DX009 (ip), vehicle: saline 97 % of control | dose: 7.5 mg/kg/injection, schedule: Q01DX009 (ip), vehicle: Klucel (hydroxypropylcellulose) (HPC) 106 % of control | dose: 7.5 mg/kg/injection, schedule: Q01DX009 (ip), vehicle: saline 122 % of control | dose: 12.5 mg/kg/injection, schedule: Q01DX001 (ip), vehicle: Klucel (hydroxypropylcellulose) (HPC) 109 % of control and 118 % of control | dose: 12.5 mg/kg/injection, schedule: Q01DX001 (ip), vehicle: saline 109 % of control and 111 % of control | dose: 15.0 mg/kg/injection, schedule: Q01DX009 (ip), vehicle: saline 122 % of control | dose: 20.0 mg/kg/injection, schedule: Q04DX003 (ip), vehicle: saline 94 % of control | dose: 40.0 mg/kg/injection, schedule: Q04DX003 (ip), vehicle: Klucel (hydroxypropylcellulose) (HPC) 100 % of control | [6] 104 % of control

Cc1cccc(C)c1NC(=S)N(C)C
inactive: [14] 91 % of control | [16] 94 % of control | dose: 10.0 mg/kg/injection, schedule: Q04DX003 (ip), vehicle: Klucel (hydroxypropylcellulose) (HPC) 102 % of control | [6] 92 % of control | [8] 111 % of control

OCC1(O)CC(O)C(O)(CO)CC1O (stereo not drawn)
inactive: [9] 97 % of control | [10] 116 % of control | [11] 104 % of control

c1ccc(CC(Cc2ccccc2)CN2CCCC2)cc1
inactive: [9] 94 % of control | [10] 88 % of control | [11] 123 % of control

O=CN(c1ccccc1)c1ccccc1
inactive: [12] 111 % of control | [13] 105 % of control | [6] 97 % of control | [1] 120 % of control | [3] 118 % of control | [5] 100 % of control

O=C(NC(CSSCC(NC(=O)OCc1ccccc1)C(=O)O)C(=O)O)OCc1ccccc1 (stereo not drawn)
inactive: [9] 107 % of control | dose: 100.0 mg/kg/injection, schedule: Q04DX003 (ip), vehicle: saline 100 % of control | [10] 107 % of control | [11] 102 % of control | dose: 400.0 mg/kg/injection, schedule: Q04DX003 (ip), vehicle: saline 89 % of control

COc1cc([C@@H]2c3cc4c(cc3C[C@H]3COC(=O)[C@@H]32)OCO4)cc(OC)c1OC
inactive: [15] 107 % of control

CC(=O)CC(=O)c1ccccc1.CC(=O)CC(=O)c1ccccc1.CC(=O)CC(=O)c1ccccc1.[Co]
inactive: [12] 100 % of control | [13] 100 % of control
